Data from patent US20240300977A1, “INHIBITORS OF DNA-DEPENDENT PROTEIN KINASE AND COMPOSITIONS AND USES THEREOF” (Intellia Therapeutics, Inc., priority 2021, published 2024).

Legend:
TRAC = settings: human
T cells = assay: HD3 TCR insertion within TRAC in T cells, flow cytometry; assay type: cell-based, human; settings: Spy Cas9 + Compound 4, HD3 TCR AAV, day 7
Procedure: 48 hours post-activation, T cells were harvested, centrifuged at 500 g for 5 min, and resuspended at a concentration of 6.41×10^5 T cells/mL in T cell plating media (TCPM): a serum-free version of TCGM containing 400 U/mL recombinant human interleukin-2 (Peprotech, Cat. 200-02), 10 ng/mL recombinant human interleukin 7 (Peprotech, Cat. 200-07), and 10 ng/mL recombinant human interleukin 15 (Peprotech, Cat. 200-15). 50 μL of T cells in TCPM (3.2×10^4 T cells) were added per well to be treated in flat-bottom 96-well plates.
LNPs were generated as described in Example 1 at a ratio of 50/38.5/10/1.5 (Lipid A/cholesterol/DSPC/PEG2k-DMG).
Mix “A” was serially diluted 1:2 in TCTM, and mixed 1:1 by volume with mix “B”. 25 μL of the resulting solution was added to 3.2×10^4 T cells in 96-well plates.
Next, a repair template in the form of an adeno-associated virus (AAV) encoding the HD3 TCR (SEQ ID NO: 18 was diluted in TCTM to 3.84×10^11 genome copies/mL in the presence or absence of Compound 4 diluted to 2 μM. 25 μL of the resulting solution was added to T cells that were treated with LNPs in the prior step. To enable editing assessments by NGS without the interference of repair templates, an arm of this experiment received 25 μL of TCTM with or without Compound 4 diluted to 2 μM in the absence of AAVs.
Following the addition of LNPs, repair templates and Compound 4, T cells were incubated at 37° C. for 48 hours, at which time T cells were centrifuged at 500 g for 5 min, resuspended in 200 μL of TCGM and returned to the incubator.
Also on day 4 post-treatment, cells that received AAV templates were mixed and sub-cultured at a 1:4 ratio (v/v) in TCGM. On day 7 post-treatment, cells that received AAV templates were evaluated by flow cytometry.
On day 7 post-LNP treatment, 50 μL of cells were transferred to U-bottom 96-well plates and spun down for 5 min at 500 g. The supernatant was discarded, cells were resuspended in 100 μL of FACS buffer containing Viakrome 808 (Beckman C., Cat. C36628) (1:100), PC5.5 anti-CD3 (Biolegend, Cat. 317336) (1:200), BV421 anti-CD4 (Biolegend, Cat. 317434) (1:100), BV785 anti-CD8 (Biolegend, Cat. 301046) (1:100), and anti-V07.2 (Beckman C., IM3604) (1:50) and stained for 30 min at 4° C. in the dark. Cells were washed once with 200 μL of FACS buffer, resuspended in 100 μL of FACS buffer and processed on a Cytoflex LX flow cytometer.

## Cc1cc2ncnn2cc1Nc1ncc2c(n1)n(C1CCC3(CC1)CC3)c(=O)n2C [Compound 4, 7-methyl-2-((7-methyl-[1,2,4]triazolo[1,5-a]pyridin-6-yl)amino)-9-(spiro[2.5]octan-6-yl)-7,9-dihydro-8H-purin-8-one]
TRAC
  Sites Validated: 0
T cells; sgRNA 0 μg/mL
  Mean CD3^+ Vβ7.2^+ T Cells %: 0.79%
T cells; sgRNA 0.026 μg/mL
  Mean CD3^+ Vβ7.2^+ T Cells %: 35.20%
T cells; sgRNA 0.052 μg/mL
  Mean CD3^+ Vβ7.2^+ T Cells %: 44.50%
T cells; sgRNA 0.104 μg/mL
  Mean CD3^+ Vβ7.2^+ T Cells %: 52.60%
T cells; sgRNA 0.209 μg/mL
  Mean CD3^+ Vβ7.2^+ T Cells %: 56.10%
T cells; sgRNA 0.418 μg/mL
  Mean CD3^+ Vβ7.2^+ T Cells %: 53.80%
T cells; sgRNA 0.835 μg/mL
  Mean CD3^+ Vβ7.2^+ T Cells %: 53.30%
T cells; sgRNA 1.67 μg/mL
  Mean CD3^+ Vβ7.2^+ T Cells %: 49.65%
